Consider three compounds from article PMC5562840, “TRPM6 and TRPM7 differentially contribute to the relief of heteromeric TRPM6/7 channels from inhibition by cytosolic Mg^2+ and Mg·ATP” (Scientific Reports, 2017).

For orientation: IC50 means the concentration needed to halve the response being measured. The low end stands for higher potency, the high end for lower potency.

Experiment [1] concerns the target T1, mTRPM7 (Mus musculus, UniProt Q923J1).
T1 construct: gene Trpm7; full-length mTRPM7 in pIRES2-EGFP, HEK 293 cells
Description: whole-cell patch clamp, intracellular dose response ([…] free Mg2+). It is filed as cell-based.

The target in experiment [2] is T2, mTRPM6 (Mus musculus, UniProt Q8CIR4).
T2 construct: gene Trpm6; full-length mTRPM6 (2028 aa) in pIRES2-EGFP, HEK 293 cells
Briefly: whole-cell patch clamp; […] inhibits currents. It is filed as cell-based.

Experiment [3] addresses mouse TRPM7 (mTRPM7) fused to a myc tag (mTRPM7-myc) (mouse) (UniProt Q923J1).

T2 sequence (Q8CIR4 whole entry): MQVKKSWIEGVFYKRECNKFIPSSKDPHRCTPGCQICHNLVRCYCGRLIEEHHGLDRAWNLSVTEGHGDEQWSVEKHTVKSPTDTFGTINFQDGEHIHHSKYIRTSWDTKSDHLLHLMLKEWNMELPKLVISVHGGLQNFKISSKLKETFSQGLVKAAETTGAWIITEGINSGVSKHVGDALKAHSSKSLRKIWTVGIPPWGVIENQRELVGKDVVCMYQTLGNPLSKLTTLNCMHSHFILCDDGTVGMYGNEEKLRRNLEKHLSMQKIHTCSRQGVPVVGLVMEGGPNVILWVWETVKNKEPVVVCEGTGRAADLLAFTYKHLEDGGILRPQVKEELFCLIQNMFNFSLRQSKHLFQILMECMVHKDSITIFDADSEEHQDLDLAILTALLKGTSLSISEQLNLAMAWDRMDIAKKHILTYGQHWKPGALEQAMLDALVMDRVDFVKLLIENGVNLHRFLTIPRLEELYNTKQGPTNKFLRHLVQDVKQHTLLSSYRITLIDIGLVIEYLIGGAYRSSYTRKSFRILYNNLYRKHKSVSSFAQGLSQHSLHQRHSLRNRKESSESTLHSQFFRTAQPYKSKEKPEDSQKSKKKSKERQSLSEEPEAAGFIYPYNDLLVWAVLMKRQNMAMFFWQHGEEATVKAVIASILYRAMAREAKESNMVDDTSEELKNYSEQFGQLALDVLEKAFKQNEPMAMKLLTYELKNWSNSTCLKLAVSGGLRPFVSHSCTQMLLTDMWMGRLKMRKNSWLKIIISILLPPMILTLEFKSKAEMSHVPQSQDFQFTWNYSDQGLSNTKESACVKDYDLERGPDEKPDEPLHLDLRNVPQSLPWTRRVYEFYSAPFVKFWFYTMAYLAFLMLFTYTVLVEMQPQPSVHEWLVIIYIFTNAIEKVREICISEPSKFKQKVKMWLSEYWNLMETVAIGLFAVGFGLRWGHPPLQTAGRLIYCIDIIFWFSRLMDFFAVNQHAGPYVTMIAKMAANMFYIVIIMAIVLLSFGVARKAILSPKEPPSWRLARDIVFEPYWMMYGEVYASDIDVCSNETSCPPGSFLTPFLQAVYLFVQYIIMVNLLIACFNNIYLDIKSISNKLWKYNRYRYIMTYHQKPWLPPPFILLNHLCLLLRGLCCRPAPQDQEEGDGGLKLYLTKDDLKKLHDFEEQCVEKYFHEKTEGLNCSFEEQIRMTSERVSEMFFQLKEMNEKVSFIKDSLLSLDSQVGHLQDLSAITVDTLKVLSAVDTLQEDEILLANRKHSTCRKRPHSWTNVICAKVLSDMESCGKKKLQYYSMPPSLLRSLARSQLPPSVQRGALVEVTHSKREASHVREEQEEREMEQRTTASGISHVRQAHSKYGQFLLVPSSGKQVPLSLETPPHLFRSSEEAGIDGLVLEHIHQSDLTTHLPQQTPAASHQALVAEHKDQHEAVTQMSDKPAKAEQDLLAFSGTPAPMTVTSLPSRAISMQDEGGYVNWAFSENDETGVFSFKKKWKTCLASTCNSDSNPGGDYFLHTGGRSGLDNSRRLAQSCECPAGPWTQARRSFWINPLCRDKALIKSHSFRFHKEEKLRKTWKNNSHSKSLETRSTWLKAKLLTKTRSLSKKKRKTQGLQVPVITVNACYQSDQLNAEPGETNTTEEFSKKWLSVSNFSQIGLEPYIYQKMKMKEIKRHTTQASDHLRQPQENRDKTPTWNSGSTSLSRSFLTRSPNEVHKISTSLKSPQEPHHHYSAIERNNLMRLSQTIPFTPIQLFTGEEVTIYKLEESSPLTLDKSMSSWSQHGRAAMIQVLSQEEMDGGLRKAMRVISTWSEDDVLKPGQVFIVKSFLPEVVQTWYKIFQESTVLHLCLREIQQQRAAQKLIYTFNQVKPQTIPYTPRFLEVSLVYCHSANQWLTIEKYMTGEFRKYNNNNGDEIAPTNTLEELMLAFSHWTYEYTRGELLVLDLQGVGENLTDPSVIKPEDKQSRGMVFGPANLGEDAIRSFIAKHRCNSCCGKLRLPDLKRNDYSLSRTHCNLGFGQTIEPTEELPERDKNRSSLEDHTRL
Sequence of mouse TRPM7 (mTRPM7) fused to a myc tag (mTRPM7-myc) (mouse) (Q923J1 whole entry, the tested form may be a part): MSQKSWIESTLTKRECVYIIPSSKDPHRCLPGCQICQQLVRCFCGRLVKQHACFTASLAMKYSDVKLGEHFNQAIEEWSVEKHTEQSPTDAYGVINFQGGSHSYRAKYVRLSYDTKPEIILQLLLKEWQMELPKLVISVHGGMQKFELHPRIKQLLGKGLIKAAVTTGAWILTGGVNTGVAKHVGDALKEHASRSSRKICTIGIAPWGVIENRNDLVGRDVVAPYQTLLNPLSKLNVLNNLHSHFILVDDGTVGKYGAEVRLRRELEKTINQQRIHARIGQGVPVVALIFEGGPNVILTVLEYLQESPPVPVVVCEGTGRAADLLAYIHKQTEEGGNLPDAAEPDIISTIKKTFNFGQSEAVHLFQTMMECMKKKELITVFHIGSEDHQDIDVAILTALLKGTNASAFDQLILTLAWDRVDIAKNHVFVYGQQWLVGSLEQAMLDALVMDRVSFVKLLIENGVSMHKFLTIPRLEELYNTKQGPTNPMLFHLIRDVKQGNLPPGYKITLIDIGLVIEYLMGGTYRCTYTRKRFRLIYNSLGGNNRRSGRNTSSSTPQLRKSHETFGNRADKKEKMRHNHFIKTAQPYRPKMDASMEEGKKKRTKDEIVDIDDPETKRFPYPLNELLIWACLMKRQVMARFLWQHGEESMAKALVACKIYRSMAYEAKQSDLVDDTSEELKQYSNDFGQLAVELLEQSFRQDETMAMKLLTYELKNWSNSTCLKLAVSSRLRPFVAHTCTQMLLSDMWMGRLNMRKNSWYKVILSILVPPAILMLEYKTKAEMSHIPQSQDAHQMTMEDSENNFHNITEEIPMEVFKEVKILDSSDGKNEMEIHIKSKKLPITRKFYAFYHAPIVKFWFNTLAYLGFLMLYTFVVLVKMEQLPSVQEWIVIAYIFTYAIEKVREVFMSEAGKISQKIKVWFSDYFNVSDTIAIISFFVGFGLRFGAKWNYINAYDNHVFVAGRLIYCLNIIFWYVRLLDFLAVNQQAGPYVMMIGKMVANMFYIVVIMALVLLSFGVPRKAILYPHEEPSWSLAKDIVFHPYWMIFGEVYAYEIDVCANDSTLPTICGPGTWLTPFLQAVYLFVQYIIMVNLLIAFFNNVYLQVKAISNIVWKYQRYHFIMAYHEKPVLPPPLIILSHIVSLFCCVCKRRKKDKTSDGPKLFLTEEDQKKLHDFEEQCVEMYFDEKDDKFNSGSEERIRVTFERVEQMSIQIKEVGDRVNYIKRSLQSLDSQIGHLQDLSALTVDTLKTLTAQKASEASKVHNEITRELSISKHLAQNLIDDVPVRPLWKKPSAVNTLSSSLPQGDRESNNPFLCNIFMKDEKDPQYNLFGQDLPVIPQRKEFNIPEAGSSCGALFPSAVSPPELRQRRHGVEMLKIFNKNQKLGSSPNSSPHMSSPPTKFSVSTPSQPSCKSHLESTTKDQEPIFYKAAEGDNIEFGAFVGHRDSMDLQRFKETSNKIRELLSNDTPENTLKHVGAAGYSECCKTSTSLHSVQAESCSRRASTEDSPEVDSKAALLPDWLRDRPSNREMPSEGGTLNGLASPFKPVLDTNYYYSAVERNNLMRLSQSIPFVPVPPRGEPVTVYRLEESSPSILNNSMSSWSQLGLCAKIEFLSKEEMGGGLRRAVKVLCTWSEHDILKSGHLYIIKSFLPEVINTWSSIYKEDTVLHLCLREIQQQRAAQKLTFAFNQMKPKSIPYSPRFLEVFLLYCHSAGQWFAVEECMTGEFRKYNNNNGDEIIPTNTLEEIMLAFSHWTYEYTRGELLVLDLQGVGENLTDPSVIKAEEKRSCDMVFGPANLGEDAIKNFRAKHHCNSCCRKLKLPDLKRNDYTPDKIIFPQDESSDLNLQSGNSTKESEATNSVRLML
T1 sequence (Q923J1 whole entry): as the sequence (Q923J1 whole entry, the tested form may be a part) above

In experiment [1], `Nc1ncnc2c1ncn2[C@@H]1O[C@H](COP(=O)(O)OP(=O)(O)OP(=O)(O)O)[C@@H](O)[C@H]1O` [Mg·ATP] came in with an IC50 of 2.93 mM.

With `c1ccc2c(c1)CCC[C@H]2Nc1nc2ccccc2[nH]1` [NS8593], the “whole-cell patch clamp; 10 μM inhibits currents” value in experiment [2] is given as “We noted that NS8593 caused a rapid irreversible inhibition of mTRPM6”.

Take “mouse TRPM6 with a C-terminal yellow fluorescent protein tag (mTRPM6-YFP), Q8CIR4 1-2028”: in experiment [3], the whole-cell currents at break-in (pre-activated outward currents) in HEK 293 cells co-transfected with mTRPM6 and mTRPM7, against cells with mTRPM7 alone is 10 fold.
